# Assay results reported in the NIST ThermoML archive (doi:10.1016/j.jct.2018.09.036).
# Numbers after ± are expanded uncertainties.
# Test: mn = molality of the nth substance listed, in mol/kg
# Settings: 298.15 K, 99.7 kPa, Liquid; for viscosity: Falling or rolling sphere viscometry; for mass density: Vibrating tube method
Compound,viscosity (m2 = 0),viscosity (m1 = 0.15),viscosity (m1 = 0.3),viscosity (m1 = 0.45),viscosity (m1 = 0.6),viscosity (m1 = 0.7),viscosity (m1 = 0.8),mass density (m1 = 0.15),mass density (m1 = 0.3),mass density (m1 = 0.45),mass density (m1 = 0.6),mass density (m1 = 0.7),mass density (m1 = 0.8),further results
O [water] + CCn1cc[n+](C)c1.[Br-],0.89 ± 0.019 mPa·s,,,,,,,,,,,,,
CCCCn1cc[n+](C)c1.[Br-] [1-butyl-3-methylimidazolium bromide] + O,,0.922 ± 0.02 mPa·s,0.974 ± 0.021 mPa·s,1.028 ± 0.022 mPa·s,1.084 ± 0.024 mPa·s,1.121 ± 0.025 mPa·s,1.164 ± 0.025 mPa·s,1004.39 ± 0.34 kg/m3,1011.43 ± 0.41 kg/m3,1018.2 ± 0.5 kg/m3,1024.73 ± 0.6 kg/m3,1028.96 ± 0.66 kg/m3,1033.08 ± 0.35 kg/m3,
O [water] + CCCCn1cc[n+](C)c1.[Br-],0.89 ± 0.019 mPa·s,,,,,,,,,,,,,
CCCCCCn1cc[n+](C)c1.[Br-] [3-hexyl-1-methyl-1H-imidazolium bromide] + O,,0.947 ± 0.02 mPa·s,1.018 ± 0.022 mPa·s,1.093 ± 0.024 mPa·s,1.169 ± 0.026 mPa·s,1.221 ± 0.027 mPa·s,1.273 ± 0.027 mPa·s,1003.87 ± 0.33 kg/m3,1010.37 ± 0.4 kg/m3,1016.58 ± 0.47 kg/m3,1022.49 ± 0.56 kg/m3,1026.26 ± 0.6 kg/m3,1029.91 ± 0.35 kg/m3,
O [water] + NCC(=O)O,0.89 ± 0.019 mPa·s,,,,,,,,,,,,,
NCC(=O)O [2-aminoacetic acid] + O,,0.908 ± 0.019 mPa·s,0.927 ± 0.02 mPa·s,,,,,1001.78 ± 0.32 kg/m3,1006.42 ± 0.35 kg/m3,,,,,viscosity (m1 = 0.1): 0.902 ± 0.019 mPa·s; viscosity (m1 = 0.2): 0.914 ± 0.019 mPa·s; viscosity (m1 = 0.25): 0.92 ± 0.02 mPa·s; viscosity (m1 = 0.35): 0.934 ± 0.02 mPa·s; mass density (m1 = 0.1): 1000.22 ± 0.31 kg/m3; mass density (m1 = 0.2): 1003.34 ± 0.33 kg/m3; mass density (m1 = 0.25): 1004.88 ± 0.34 kg/m3; mass density (m1 = 0.35): 1007.94 ± 0.31 kg/m3
O [water] + CCCCCCn1cc[n+](C)c1.[Br-],0.89 ± 0.019 mPa·s,,,,,,,,,,,,,
CCn1cc[n+](C)c1.[Br-] [1-ethyl-3-methylimidazolium bromide] + O,,0.899 ± 0.019 mPa·s,0.93 ± 0.02 mPa·s,0.961 ± 0.021 mPa·s,0.992 ± 0.021 mPa·s,1.013 ± 0.022 mPa·s,1.036 ± 0.022 mPa·s,1004.96 ± 0.34 kg/m3,1012.56 ± 0.43 kg/m3,1019.92 ± 0.53 kg/m3,1027.01 ± 0.64 kg/m3,1031.63 ± 0.71 kg/m3,1036.11 ± 0.35 kg/m3,
